The source of these data is article PMC5799307, “Creation of a long-acting nanoformulated dolutegravir” (Nature Communications, 2018).

Series [1] in a line: Blood and tissue DTG levels and animal weights in hu-PBL-NSG mice. The conditions noted are these: NOD/scid-IL-2Rγc^null (NSG), mouse, intramuscular, 45 mg/kg DTG-eq.; kidney, day 39; read-out: tissue DTG level. In kind it is in vivo. On the procedure: NOD/scid-IL-2Rγc^null (NSG) mice (6–7 weeks of age; Jackson Labs, Bar Harbor, ME) were administered a single IM injection in a volume of 40 µL/25 g mouse of NDTG or NMDTG at a concentration of 45 mg/kg DTG-eq. on day 0 for measures of relative viral restriction. Mice were then reconstituted with 25 × 10^6 human peripheral blood lymphocytes (hu-PBL) per mouse 4 or 19 days post drug treatment by IP injection. Next, mice were challenged 10 days post hu-PBL reconstitution with HIV-1ADA at 14 or 29 days post drug treatment by IP injection at a TCID50 of 2 × 10^4 per mouse. […] Plasma was saved for viral load (HIV-1 RNA) quantitation using the Roche Amplicor and Taqman-48 system [HIV-1 kit V2.0 according to the manufacturer’s instructions (Indianapolis, IN)]. Blood and tissue drug concentrations were determined by UPLC-MS/MS as described above. […] The number of HIV-1p24+ and HLA-DP/DQ/DR+ cells per section were counted and expressed as percentage of HIV-1p24+ cells/HLA-DP/DQ/DR+ cells per section. […] Plasma was used for quantitative viral load (measurements of HIV-1 RNA) using the Roche Amplicor and Taqman-48 system. Blood and tissue drug concentrations were determined by UPLC-MS/MS as described above. […]

Series [2] in a line: Pharmacokinetics and biodistribution in Balb/cJ mice, single IM dose. The conditions noted are these: male, mouse, in vivo. On the procedure:
Male Balb/cJ mice (6–8 weeks of age; Jackson Labs, Bar Harbor, ME) were injected with NDTG or NMDTG (45 mg/kg DTG-eq.) intramuscularly (IM; caudal thigh muscle) in a volume of 40 µL/25 g mouse. For injections, NDTG and NMDTG were diluted to 28.1 mg DTG/mL in endotoxin-free water and 42.3 mg MDTG/mL in HEPES buffer, respectively. Twenty-five microliters of whole blood was collected by cheek puncture into 1 mL ACN at 1, 3, 7, 14, 21, 28, 35, 42, 49, and 56 days after drug administration. Animals were humanely euthanized using isoflurane followed by cervical dislocation at 28 and 56 days, and tissues (spleen, liver, lymph nodes, lungs, kidneys, gut-associated lymphoid tissue (GALT), and brain) were collected for drug quantitation. Drug concentration in whole blood and tissues was determined by UPLC-MS/MS using a Waters Acquity UPLC- Xevo TQ-S micro mass spectrometry system (Milford, MA). For blood analysis, 10 µL of internal standard (IS) solution was added to each sample. […] MDTG was quantified using a 7-min gradient of the same mobile phases at a flow rate of 0.35 mL/min. […] DTG and MDTG were detected at cone voltages of 10 V and 16 V and collision energies of 25 V and 44 V, respectively. […] Spectra were analyzed and quantified by MassLynx software version 4.1. Quantitation was based upon drug peak area to internal standard peak area ratios.

Consider `C[C@@H]1CCO[C@H]2Cn3cc(C(=O)NCc4ccc(F)cc4F)c(=O)c(O)c3C(=O)N12` [DTG, dolutegravir], for which the concentration at 39 days in series [1] was 4.1 ng/g.

For `CCCCCCCCCCCCCC(=O)Oc1c2n(cc(C(=O)NCc3ccc(F)cc3F)c1=O)C[C@@H]1OCC[C@@H](C)N1C2=O` [MDTG], the “time prodrug was detectable in blood” value in series [2] is on record as no more than 3 days.
